Assay results from patent publication EP3150203B1, “COMPOUNDS WITH (1E,6E)-1,7-BIS-(3,4- DIMETHOXYPHENYL)-4,4-DISSTITUTED-HEPA-1,6-DIENE-3,5-DI-ONE STRUCTURAL SCAFFOLD,THEIR BIOLOGICAL ACTIVITY, AND USES THEREOF” (Allianz Pharmascience Ltd, priority 2012, dated 2013).
Read-outs that look alike come from different tables or passages of the source. One block for each molecule: values may come before it.

Experiments:
[1] = target: T1, Androgen Receptor (AR) (Homo sapiens, UniProt P10275, H875Y, form not given); experiment: Western Blot analysis of AR protein expression in CWR22Rv1 cells; format: cell-based; conditions: for IC50: Western blotting
T1 sequence (P10275 1-920 H875Y): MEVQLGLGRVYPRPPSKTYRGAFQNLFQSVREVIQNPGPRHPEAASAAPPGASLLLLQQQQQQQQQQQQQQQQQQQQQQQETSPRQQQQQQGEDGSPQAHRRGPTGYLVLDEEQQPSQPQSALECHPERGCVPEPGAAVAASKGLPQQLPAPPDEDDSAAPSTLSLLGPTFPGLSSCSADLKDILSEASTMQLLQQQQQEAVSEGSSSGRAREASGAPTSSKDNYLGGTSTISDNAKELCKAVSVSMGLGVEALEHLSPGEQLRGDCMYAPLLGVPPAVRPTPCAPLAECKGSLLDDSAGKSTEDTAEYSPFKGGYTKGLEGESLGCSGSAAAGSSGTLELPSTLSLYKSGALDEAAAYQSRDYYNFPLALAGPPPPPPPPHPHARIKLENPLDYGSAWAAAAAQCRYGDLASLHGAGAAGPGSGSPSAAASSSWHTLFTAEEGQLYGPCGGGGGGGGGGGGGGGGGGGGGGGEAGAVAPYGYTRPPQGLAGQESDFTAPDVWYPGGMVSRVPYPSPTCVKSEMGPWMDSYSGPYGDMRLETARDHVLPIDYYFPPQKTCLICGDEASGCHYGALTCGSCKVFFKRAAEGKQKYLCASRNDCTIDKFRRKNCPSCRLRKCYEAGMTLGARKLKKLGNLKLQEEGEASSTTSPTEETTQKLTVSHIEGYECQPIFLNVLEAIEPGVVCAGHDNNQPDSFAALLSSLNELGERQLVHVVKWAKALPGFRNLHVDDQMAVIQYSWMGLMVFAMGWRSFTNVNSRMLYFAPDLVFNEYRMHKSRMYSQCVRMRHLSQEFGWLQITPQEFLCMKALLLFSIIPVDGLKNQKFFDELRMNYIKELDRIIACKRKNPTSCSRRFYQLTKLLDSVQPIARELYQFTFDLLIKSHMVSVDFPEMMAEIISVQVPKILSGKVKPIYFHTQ

[2] = test system: CWR22Rv1 cells (human prostate cancer); experiment: MTT cell growth assay, CWR22Rv1 cells; format: cell-based; conditions: 5 days, read-out: Inhibition of Tumor cells growth IC50
Protocol: The MTT cell proliferation assay was applied in the present invention to detect the capability of compounds to suppress or inhibit prostate cancer cells growth. […] Briefly, 1 x 10^3 LNCaP or CWR22Rv1 cells suspended in complete medium were plated into each well of a 96-well Microtest III tissue culture plate (Falcon, NJ). Two days later, the medium was replaced with RPMI-1640 medium containing 10% charcoal/dextran-deprived FBS (hormone-deprived fetal bovine serum). Testing compounds were added to the medium at indicated concentrations with or without 1 nM DHT and cells were cultured for 5 days in an incubator (at 37 °C). MTT substrate solution (5 mg/ml in PBS) in 1/10 of volume was added to the cells in each well at 2 hours before harvesting. After 2 hour incubation, the plates were centrifuged (10 min at 1,000 rpm) and the supernatant from each well was carefully removed. A 100 µl of lysis buffer (50% dimethyl formamide, 5% sodium dodecyl sulphate, 0.35 M acetic acid, and 50 mM HCl) was added to each well to lyse the cells and dissolved tetrazolium in each well. The relative quantity of enzyme activity from each well was measured based on absorbance read at a wavelength of 450 nm using a Bio-RAD BenchMark microplate reader. Data derived from the MTT assay were also verified by the actual cell count and cell morphology on a separate plate set up in parallel.
For inhibition of tumor cell growth, in vitro, cells were growth in the presence of testing compounds for 5 days, and the cell growth was assayed by standard MTT assay. […] Table 2: Biological activity of Compounds and Derivatives having (1E, 6E)-1,7-bis-(3,4-dimethoxyphenyl)-4,4-disubstituted-hepta-1,6-diene-3,5-dione OR (1E, 10E)-1,11-bis(substituted phenyl)- 6,6-disubstituted undeca-1,3,8,10-tetraene-5,7-dione structural scaffold

[3] = Stability in acidic condition (0.1 N HCl, 37°C); format: physicochemical
Excerpt: (§1) Also, at 24 hr where stability of JM49 was only 4%, while its derivative Compound 6 had improved to 79%. Similar improvements in stability (from 6- 24 hr) were also observed in the conditions of rat plasma (Table 4) and human plasma (Table 5). […] Table 3. Relative compound concentration changes (stability) in acidic condition

[4] = Stability in rat plasma (37°C); format: in vitro ADME
Excerpt: as §1

[5] = Stability in human plasma (37°C); format: in vitro ADME; conditions: result in words (Table 5 not given)
Excerpt: as §1

[6] = 48 h post-incubation, read-out: Reduction of AR expression IC50 (µM) 48 h
[7] = 24 h post-incubation, read-out: Reduction of AR expression IC50 (µM) 24 h

Compound: COc1ccc(/C=C/C(=O)C(C)(CC2CC2)C(=O)/C=C/c2ccc(OC)c(OC)c2)cc1OC [Compound 1]
IC50 [1, 6]: 2.1 µM
IC50 [2]: 2.4 µM

IC50 ([2]; Homo sapiens, 120 h): > 7.5 µM
Compound: COc1ccc(/C=C/C(=O)C(C)(CC2CCC2)C(=O)/C=C/c2ccc(OC)c(OC)c2)cc1OC [Compound 2]

IC50 ([2]; Homo sapiens, 120 h): 2.6 µM
Compound: COc1ccc(/C=C/C(=O)C(C)(CC2CCCC2)C(=O)/C=C/c2ccc(OC)c(OC)c2)cc1OC [Compound 4]

Compound: COc1ccc(/C=C/C(=O)C(C)(CC2CCCCC2)C(=O)/C=C/c2ccc(OC)c(OC)c2)cc1OC [Compound 5]
IC50 [1, 6]: 4 µM
IC50 [2]: 4.6 µM

IC50 ([2]; Homo sapiens, 120 h): 1.5 µM
Concentration change (%) (stability) in acidic condition ([3]; 0 h): 100%
Concentration change (%) (stability) in acidic condition ([3]; 2 h): 100%
Concentration change (%) (stability) in acidic condition ([3]; 4 h): 99%
Concentration change (%) (stability) in acidic condition ([3]; 24 h): 79%
Concentration change (%) (stability) in acidic condition ([3]; 48 h): 56%
Concentration change (%) (stability) in rat plasma ([4]; 0 h): 100%
Concentration change (%) (stability) in rat plasma ([4]; 1 h): 98%
Concentration change (%) (stability) in rat plasma ([4]; 2 h): 96%
Concentration change (%) (stability) in rat plasma ([4]; 6 h): 93%
Concentration change (%) (stability) in rat plasma ([4]; 24 h): 77%
Concentration change (%) (stability) in rat plasma ([4]; 48 h): 51%
stability in human plasma [5]: unexpectedly and dramatically improved
Compound: CCN(CC)C(=O)CC(C)(C(=O)/C=C/c1ccc(OC)c(OC)c1)C(=O)/C=C/c1ccc(OC)c(OC)c1 [Compound 6]

IC50 ([2]; Homo sapiens, 120 h): 2 µM
Concentration change (%) (stability) in acidic condition ([3]; 0 h): 100%
Concentration change (%) (stability) in acidic condition ([3]; 1 h): 99%
Concentration change (%) (stability) in acidic condition ([3]; 2 h): 99%
Concentration change (%) (stability) in acidic condition ([3]; 4 h): 98%
Concentration change (%) (stability) in acidic condition ([3]; 24 h): 81%
Concentration change (%) (stability) in acidic condition ([3]; 48 h): 58%
Concentration change (%) (stability) in rat plasma ([4]; 0 h): 100%
Concentration change (%) (stability) in rat plasma ([4]; 1 h): 101%
Concentration change (%) (stability) in rat plasma ([4]; 2 h): 100%
Concentration change (%) (stability) in rat plasma ([4]; 6 h): 101%
Concentration change (%) (stability) in rat plasma ([4]; 24 h): 99%
Concentration change (%) (stability) in rat plasma ([4]; 48 h): 86%
stability in human plasma [5]: unexpectedly and dramatically improved
Compound: COc1ccc(/C=C/C(=O)C(C)(CC(=O)N(C)C)C(=O)/C=C/c2ccc(OC)c(OC)c2)cc1OC [Compound 7]

IC50 ([2]; Homo sapiens, 120 h): 2.3 µM
Compound: CCCCC(C)(C(=O)/C=C/c1ccc(OC)c(OC)c1)C(=O)/C=C/c1ccc(OC)c(OC)c1 [Compound 8]

Compound: COc1ccc(/C=C/C(=O)C(C)(CC(=O)N2CCOCC2)C(=O)/C=C/c2ccc(OC)c(OC)c2)cc1OC [Compound 11]
IC50 [1, 7]: 2.2 µM

IC50 ([2]; Homo sapiens, 120 h): > 5 µM
Compound: COc1ccc(/C=C/C(=O)C(F)(CC2CC2)C(=O)/C=C/c2ccc(OC)c(OC)c2)cc1OC [Compound 13]

IC50 ([2]; Homo sapiens, 120 h): 3.6 µM
Compound: COc1ccc(/C=C/C(=O)C(F)(CC2CCC2)C(=O)/C=C/c2ccc(OC)c(OC)c2)cc1OC [Compound 14]

IC50 ([2]; Homo sapiens, 120 h): 3.2 µM
Compound: COc1ccc(/C=C/C(=O)C(F)(CC2CCCC2)C(=O)/C=C/c2ccc(OC)c(OC)c2)cc1OC [Compound 15]

IC50 ([2]; Homo sapiens, 120 h): 4 µM
Compound: COc1ccc(/C=C/C(=O)C(F)(CC2CCCCC2)C(=O)/C=C/c2ccc(OC)c(OC)c2)cc1OC [Compound 16]

IC50 ([2]; Homo sapiens, 120 h): > 7.5 µM
Compound: CCN(CC)C(=O)CC(F)(C(=O)/C=C/c1ccc(OC)c(OC)c1)C(=O)/C=C/c1ccc(OC)c(OC)c1 [Compound 17]

Compound: COc1ccc(/C=C/C(=O)C(F)(CC(=O)N(C)C)C(=O)/C=C/c2ccc(OC)c(OC)c2)cc1OC [Compound 18]
IC50 [1, 7]: > 5 µM
IC50 [2]: > 7.5 µM

IC50 ([2]; Homo sapiens, 120 h): 4.7 µM
Compound: CCCCC(F)(C(=O)C=Cc1ccc(OC)c(OC)c1)C(=O)C=Cc1ccc(OC)c(OC)c1 (stereo not shown) [Compound 19]

IC50 ([2]; Homo sapiens, 120 h): 4 µM
Compound: CCN(CC)C(=O)CC(Cl)(C(=O)/C=C/c1ccc(OC)c(OC)c1)C(=O)/C=C/c1ccc(OC)c(OC)c1 [Compound 20]

IC50 ([2]; Homo sapiens, 120 h): > 7.5 µM
Compound: COc1ccc(/C=C/C(=O)C(Cl)(CC(=O)N(C)C)C(=O)/C=C/c2ccc(OC)c(OC)c2)cc1OC [Compound 21]

Compound: CCOC(=O)CCC(C)(C(=O)/C=C/c1ccc(OC)c(OC)c1)C(=O)/C=C/c1ccc(OC)c(OC)c1 [Compound 22]
IC50 [1, 7]: 1.8 µM

Compound: CCOC(=O)CCC(F)(C(=O)/C=C/c1ccc(OC)c(OC)c1)C(=O)/C=C/c1ccc(OC)c(OC)c1 [Compound 23]
IC50 [1, 7]: > 5 µM

Compound: CCN(CC)C(=O)CC(C)(C(=O)C=CC=Cc1ccc(OC)c(OC)c1)C(=O)C=CC=Cc1ccc(OC)c(OC)c1 (stereo not shown) [Compound 32]
IC50 [1, 7]: 2.8 µM

Compound: CCN(CC)C(=O)CC(C(=O)/C=C/c1ccc(OC)c(OC)c1)C(=O)/C=C/c1ccc(OC)c(OC)c1 [JM49]
reducing endogenous AR expression ([1]; various concentrations, Western Blot (FIG. 6)): capable of reducing endogenous AR expression
Concentration change (%) (stability) in acidic condition ([3]; 0 h): 100%
Concentration change (%) (stability) in acidic condition ([3]; 1 h): 73%
Concentration change (%) (stability) in acidic condition ([3]; 2 h): 56%
Concentration change (%) (stability) in acidic condition ([3]; 6 h): 38%
Concentration change (%) (stability) in acidic condition ([3]; 24 h): 4%
Concentration change (%) (stability) in rat plasma ([4]; 0 h): 100%
Concentration change (%) (stability) in rat plasma ([4]; 1 h): 68%
Concentration change (%) (stability) in rat plasma ([4]; 2 h): 54%
Concentration change (%) (stability) in rat plasma ([4]; 6 h): 27%
Concentration change (%) (stability) in rat plasma ([4]; 24 h): 2%
Concentration change (%) (stability) in rat plasma ([4]; 48 h): 0%
stability in human plasma [5]: chemically unstable

Concentration change (%) (stability) in acidic condition ([3]; 0 h): 100%
Concentration change (%) (stability) in acidic condition ([3]; 1 h): 14%
Concentration change (%) (stability) in acidic condition ([3]; 2 h): 8%
Concentration change (%) (stability) in acidic condition ([3]; 6 h): 0%
Concentration change (%) (stability) in acidic condition ([3]; 24 h): 0%
Concentration change (%) (stability) in rat plasma ([4]; 0 h): 100%
Concentration change (%) (stability) in rat plasma ([4]; 1 h): 93%
Concentration change (%) (stability) in rat plasma ([4]; 2 h): 88%
Concentration change (%) (stability) in rat plasma ([4]; 6 h): 73%
Concentration change (%) (stability) in rat plasma ([4]; 24 h): 27%
Concentration change (%) (stability) in rat plasma ([4]; 48 h): 7%
stability in human plasma [5]: chemically unstable
Compound: COc1ccc(/C=C/C(=O)C(CC(=O)N(C)C)=C(O)/C=C/c2ccc(OC)c(OC)c2)cc1OC [JM77]
